Consider one molecule from patent publication US20230341377A1, “DISCONNECTION AGENTS” (DC Europa Limited, priority 2020, published 2023).

The target of one experiment is PKCδ (Homo sapiens, UniProt Q05655). Also noted: key: +—activation; ++—strong activation. The following applies: nPKCs, gene PRKCD; cited from earlier work.
Experiment [1] concerns patient-derived S24 glioblastoma model. As to the kind of experiment: Example 4: orthotopic S24 glioblastoma in mouse brain, TPPB and radiotherapy, in vivo MPLSM imaging. Also noted: species or system NMRI nude mice. Particulars: for tumour burden / tumour connectivity: TPPB 3 doses i.p. days 13, 14, 15 at 200 μg/kg. From the text:
8-10 weeks old male NMRI nude mice were used for all studies with human primary brain tumour cells. Cranial window implantation in mice was done in a modification of what has been previously described (see References), including a custom-made titanium ring for painless head fixation during imaging. 2-3 weeks after cranial window implantation, 30,000 tumour cells of the patient-derived S24 glioblastoma model were stereotactically injected into the mouse brain at a depth of 500 μm. Tumours were injected on day minus 35, i.e., 35 days before treatment start. Treatment was started on day 0.
Control animals (top row of FIG. 3) were untreated. TPPB continuous treatment (middle row) was administered intraperitoneally once per day on days 0 to 28 at variable daily doses ranging from 10 to 700 μg/kg. TPPB 3 doses (bottom row of FIG. 3) were administered intraperitoneally once per day on days 13, 14 and 15 at 200 μg/kg.
Tumours were irradiated with 7 Gy on three consecutive days (days 14, 15, 16, total dose 21 Gy) in regions matching in tumour cell density using a 6 MV linear accelerator with a 6 mm collimator (adjusted to the window size) at a dose rate of 3 Gy min^−1 (Faxitron MultiRad225). The used radiation schedule is in the range of the commonly prescribed 60 Gy in 2 Gy. fractions for malignant glioma patients, assuming an α/β of ˜10 in the linear quadratic model and taking into account the radiation time of 3 days.
MPLSM imaging was done with a Zeiss 7MP microscope (Zeiss) equipped with a Coherent Chameleon Ultrall laser (Coherent). MPLSM images were acquired by the ZEISS ZEN Software.
White to light gray areas of images in FIG. 3 depict S24 glioblastoma cells growing in the mouse brain. Black or dark gray areas depict vessels or background.

Chain of PKCδ (Q05655 whole entry): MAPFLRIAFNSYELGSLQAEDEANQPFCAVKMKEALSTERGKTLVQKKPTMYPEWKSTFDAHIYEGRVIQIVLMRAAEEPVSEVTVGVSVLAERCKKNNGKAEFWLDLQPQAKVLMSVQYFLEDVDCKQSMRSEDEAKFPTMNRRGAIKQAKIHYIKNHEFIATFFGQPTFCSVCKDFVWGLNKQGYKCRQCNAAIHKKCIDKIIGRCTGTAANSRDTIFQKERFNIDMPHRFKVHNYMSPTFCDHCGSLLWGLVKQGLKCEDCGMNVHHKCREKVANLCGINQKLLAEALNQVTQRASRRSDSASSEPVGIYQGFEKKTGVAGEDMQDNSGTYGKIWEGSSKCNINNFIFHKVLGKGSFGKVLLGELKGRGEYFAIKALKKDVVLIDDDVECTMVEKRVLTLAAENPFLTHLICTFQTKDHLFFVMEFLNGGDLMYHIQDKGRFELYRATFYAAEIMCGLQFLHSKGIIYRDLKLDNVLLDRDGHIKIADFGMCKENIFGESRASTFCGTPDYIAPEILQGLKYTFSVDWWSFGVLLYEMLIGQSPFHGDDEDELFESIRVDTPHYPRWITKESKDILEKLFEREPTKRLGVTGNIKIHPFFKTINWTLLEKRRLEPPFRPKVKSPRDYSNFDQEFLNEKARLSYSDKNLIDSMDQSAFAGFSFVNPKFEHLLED

With `CC(C)[C@H]1C(=O)N[C@H](CO)Cc2cc(NC(=O)/C=C/C=C/c3ccc(C(F)(F)F)cc3)ccc2N1C` [TPPB, (2E,4E)-N-[(2S,5S)-1,2,3,4,5,6-Hexahydro-5-(hydroxymethyl)-1-methyl-2-(1-methylethyl)-3-oxo-1,4-benzodiazocin-8-yl]-5-[4-(trifluoromethyl)phenyl]-2,4-pentadienamide], at PKCδ, the “activation of PKCδ” value is reported as “+”. The tumour burden result in experiment [1] (RTx 7 Gy days 14, 15, 16, day 28) was “marked tumour regression”; in experiment [1] (RTx, days 35 and 42) it was “complete remission from the tumour burden”. Further, the tumour connectivity entry in experiment [1] (RTx, day 28) is on record as “markedly reduced”; in experiment [1] (RTx, days 35 and 42), “completely disconnected”. The “tumour burden and connectivity versus control” value in experiment [1] (TPPB continuous i.p. once per day days 0 to 28, 10 to 700 μg/kg, RTx 7 Gy days 14, 15, 16, days 0 to 35) was “no effect against control”.
